The results in this text go back to patent publication US6767522B1, “Method for leaching sulfide-containing materials with microorganisms and use of sulphur-containing amino acids in leaching with microorganisms” (Hahn-Meitner-Institut Berlin GmbH, priority 1998, dated 2004).

SMILES strings stand for the structures.

The subject of this test is Thiobacillus ferrooxidans. In words: Bacterial dissolution of pyrite layers with Thiobacillus ferrooxidans in the presence of cysteine. The settings on record: for lag phase of bacterial pyrite dissolution: pH 1.6; for pyrite corrosion level (or dissolution rate): pH 1.6, S^o-FeS2 pyrite layer 100 nm, after 10-11 days. The protocol: Each time, 1 cm^3 of pyrite layers 100 nm in thickness (referred to as S^o-FeS2), prepared according to Example 1 using elemental sulfur as precursor, was added with 300 μl of aqueous solutions or suspensions of Thiobacillus ferrooxidans cells and cysteine at concentrations of from 8×10^−2 to 8×10^−5 M in an in situ pyrite culture chamber. The pH value of the solutions was adjusted to 1.6 using Tuovinen buffer (for 1 liter: KH2PO4=0.4 g, MgSO4.7H2O=0.4 g, (NH4)2SO4=0.4 g, […], with no iron(II) being added) [cf., Tuovinen and Kelly, Arch. Mikrobiol. 88, 285-298 (1973)].
FIG. 1 is a plot of the pyrite corrosion level (or dissolution rate) [%] as a function of time [days] for the various solutions.

As to `N[C@@H](CS)C(=O)O` [cysteine], the “lag phase of bacterial pyrite dissolution” value was “no longer occurs” (8×10^−4 M cysteine in solution) and “no longer occurs” (8×10^−5 M cysteine in solution). Also, the “pyrite corrosion level (or dissolution rate)” value is, setting by setting: (8×10^−4 M cysteine in solution) 100%; (8×10^−5 M cysteine in solution) 100%.
